Test results as given in ChEMBL document CHEMBL3885861, “Open TG-GATES”.

Organism: Rattus norvegicus
Test: Open TG-GATES - Regimen: Daily Repeat
Format: toxicity, organism-based, Sprague-Dawley
Design: regimen Daily Repeat, gender Male, age 6 weeks
Conditions: in vivo, po, route gavage; for gamma-GTP / ALP / ALT / AST / CRE / DBIL / GLC / IP / K / LDH / Na / PL / RALB / TBIL / TC / TG / TP: tissue Plasma; for APTT / Bas / Eos / Fbg / Hb / Ht / Lym / MCHC / MCV / Mono / Neu / PT / Plat / RBC / Ret / WBC: tissue Blood; for KIDNEY_L / KIDNEY_R / KIDNEY_TOTAL: tissue Kidney; for LIVER: tissue Liver
[1] = 100 mg/kg, 72 h, dose level Low, time 3 day
[2] = 100 mg/kg, […], dose level Low, time 7 day
[3] = 100 mg/kg, […], dose level Low, time 14 day
[4] = 100 mg/kg, […], dose level Low, time 28 day

SMILES: C#C[C@]1(O)CC[C@H]2[C@@H]3CCC4=Cc5oncc5C[C@]4(C)[C@H]3CC[C@@]21C [DANAZOL]
- gamma-GTP (0 mg/kg, […], dose level Control, time 28 day): 3.4 IU/L
- TERMINAL_BW [1]: 235.6 g
- APTT [1]: 23.6 s
- Bas [1]: 0%
- Eos [1]: 1%
- Fbg [1]: 344.8 mg/dL
- Hb [1]: 13.5 g/dL
- Ht [1]: 41%
- Lym [1]: 77%
- MCHC [1]: 32.8%
- MCV [1]: 63 fL
- Mono [1]: 2.8%
- Neu [1]: 19%
- PT [1]: 16.3 s
- Plat [1]: 115.1 x10_4/uL
- RBC [1]: 651.2 x10_4/ul
- Ret [1]: 6.3%
- WBC [1]: 91.5 x10_2/uL
- KIDNEY_L [1]: 1 g
- KIDNEY_R [1]: 1 g
- KIDNEY_TOTAL [1]: 2.1 g
- LIVER [1]: 11.7 g
- ALP [1]: 1493.6 IU/L
- ALT [1]: 45.6 IU/L
- AST [1]: 72.4 IU/L
- CRE [1]: 0.2 mg/dL
- DBIL [1]: 0 mg/dL
- GLC [1]: 187.2 mg/dL
- IP [1]: 7 mg/dL
- K [1]: 4.3 meq/L
- LDH [1]: 168.2 IU/L
- Na [1]: 143 meq/L
- PL [1]: 131.2 mg/dL
- RALB [1]: 3.1 g/dL
- TBIL [1]: 0 mg/dL
- TC [1]: 55.2 mg/dL
- TG [1]: 161.4 mg/dL
- TP [1]: 5.7 g/dL
- gamma-GTP [1]: 1.8 IU/L
- TERMINAL_BW [2]: 261.4 g
- TERMINAL_BW [3]: 310 g
- TERMINAL_BW [4]: 405.6 g
- APTT [2]: 25 s
- Bas [2]: 0%
- Eos [2]: 0.4%
- Fbg [2]: 318 mg/dL
- Hb [2]: 13.7 g/dL
- Ht [2]: 40.4%
- Lym [2]: 84%
- MCHC [2]: 33.9%
- MCV [2]: 60.1 fL
- Mono [2]: 2%
- Neu [2]: 13%
- PT [2]: 15.7 s
- Plat [2]: 117.6 x10_4/uL
- RBC [2]: 672.6 x10_4/ul
- Ret [2]: 5.1%
- WBC [2]: 112.4 x10_2/uL
- APTT [3]: 26.6 s
- Bas [3]: 0%
- Eos [3]: 0.8%
- Fbg [3]: 354.4 mg/dL
- Hb [3]: 14.5 g/dL
- Ht [3]: 41.1%
- Lym [3]: 84.8%
- MCHC [3]: 35.2%
- MCV [3]: 60.3 fL
- Mono [3]: 1.8%
- Neu [3]: 12%
- PT [3]: 16.2 s
- Plat [3]: 134.9 x10_4/uL
- RBC [3]: 681.2 x10_4/ul
- Ret [3]: 3.3%
- APTT [4]: 26.9 s
- Bas [4]: 0%
- Eos [4]: 1%
- Fbg [4]: 326.6 mg/dL
- Hb [4]: 14.5 g/dL
- Ht [4]: 42.4%
- Lym [4]: 78.8%
- MCHC [4]: 34.2%
- MCV [4]: 56.1 fL
- Mono [4]: 1.6%
- Neu [4]: 17.6%
- PT [4]: 17.1 s
- Plat [4]: 109.1 x10_4/uL
- RBC [4]: 756.2 x10_4/ul
- Ret [4]: 2.4%
- WBC [4]: 85.7 x10_2/uL
- KIDNEY_L [2]: 1.1 g
- KIDNEY_R [2]: 1.1 g
- KIDNEY_TOTAL [2]: 2.2 g
- KIDNEY_L [3]: 1.3 g
- KIDNEY_R [3]: 1.3 g
- KIDNEY_TOTAL [3]: 2.6 g
- KIDNEY_L [4]: 1.5 g
- KIDNEY_R [4]: 1.5 g
- KIDNEY_TOTAL [4]: 2.9 g
- LIVER [2]: 12.7 g
- LIVER [3]: 14.9 g
- LIVER [4]: 18.3 g
- ALP [2]: 1505.8 IU/L
- ALT [2]: 39.6 IU/L
- AST [2]: 65 IU/L
- CRE [2]: 0.2 mg/dL
- DBIL [2]: 0 mg/dL
- GLC [2]: 181.8 mg/dL
- IP [2]: 6.2 mg/dL
- K [2]: 4.4 meq/L
- LDH [2]: 139.6 IU/L
- Na [2]: 143.2 meq/L
- PL [2]: 128.4 mg/dL
- RALB [2]: 3 g/dL
- TBIL [2]: 0.002 mg/dL
- TC [2]: 51.8 mg/dL
- TG [2]: 140.4 mg/dL
- TP [2]: 5.6 g/dL
- gamma-GTP [2]: 2.2 IU/L
- ALP [3]: 1681.6 IU/L
- ALT [3]: 38.4 IU/L
- AST [3]: 57.4 IU/L
- CRE [3]: 0.2 mg/dL
- DBIL [3]: 0 mg/dL
- GLC [3]: 182.8 mg/dL
- IP [3]: 6.8 mg/dL
- K [3]: 4.1 meq/L
- LDH [3]: 154 IU/L
- Na [3]: 143.6 meq/L
- PL [3]: 132.8 mg/dL
- RALB [3]: 3.1 g/dL
- TBIL [3]: 0 mg/dL
- TC [3]: 49 mg/dL
- TG [3]: 177.6 mg/dL
- TP [3]: 6 g/dL
- gamma-GTP [3]: 2.6 IU/L
- ALP [4]: 1348.8 IU/L
- ALT [4]: 39.8 IU/L
- AST [4]: 59.2 IU/L
- CRE [4]: 0.2 mg/dL
- DBIL [4]: 0 mg/dL
- GLC [4]: 191.4 mg/dL
- IP [4]: 6.1 mg/dL
- K [4]: 3.9 meq/L
- LDH [4]: 121.8 IU/L
- Na [4]: 142.8 meq/L
- PL [4]: 142.4 mg/dL
- RALB [4]: 3 g/dL
- TBIL [4]: 0 mg/dL
- TC [4]: 46.6 mg/dL
- TG [4]: 334.4 mg/dL
- TP [4]: 6.2 g/dL
- gamma-GTP [4]: 3.2 IU/L
